{"source": "patent US20220119354A1", "about": "“DIAMINO-SUBSTITUTED PYRIDINES AND PYRIMIDINES AS HERBICIDES” (FMC Corporation, priority 2019, published 2022)", "assay_type_in_all_cases": "in vivo", "key": {"rice (Oryza sativa)": {"tested_on": "rice (Oryza sativa)", "test": "Test B flooded paddy test, rice", "conditions": "Oryza sativa, 360 h; Flood, 250 g ai/ha, applied to paddy water, 2-leaf stage, visual evaluation after 13 to 15 d; read-out: Plant response rating, Rice (0 to 100 scale, 0 is no effect, 100 is complete control)", "procedure,_shortened": "(§1)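 Visual injury scores run from 0 (no effect) to 100 (complete control), assigned by comparison with controls 13 to 15 d after treatment. Treatment went into floodwater standing 3 cm over the soil of pots holding 2-leaf plants.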"}, "[1]": {"tested_on": "ragweed (common ragweed, Ambrosia elatior)", "test": "Test A preemergence, ragweed", "conditions": "0 to 100 scale, 0 is no effect, 100 is complete control", "procedure,_shortened": "(§2)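 Ratings reflect visual comparison with untreated controls roughly 10 d after greenhouse application, 0 meaning no effect and 100 complete control. Treatment was by directed soil spray at planting or by spray onto one- to two-leaf plants in loam/sand pots.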"}, "[2]": {"tested_on": "foxtail, giant (Setaria faberii)", "test": "Test A preemergence, giant foxtail", "conditions": "0 to 100 scale, 0 is no effect, 100 is complete control", "procedure,_shortened": "as §2"}, "[3]": {"tested_on": "foxtail, giant (Setaria faberii)", "test": "Test A postemergence, giant foxtail", "conditions": "Setaria faberi, post-emergence, 240 h, 0 to 100 scale, 0 no effect, 100 complete control, read-out: Plant response rating, Foxtail, Giant", "procedure,_shortened": "as §2"}, "[4]": {"tested_on": "wheat (Triticum aestivum)", "test": "Test A postemergence, wheat", "conditions": "Triticum aestivum, post-emergence, 240 h, 0 to 100 scale, 0 no effect, 100 complete control, read-out: Plant response rating, Wheat", "procedure,_shortened": "as §2"}, "[5]": {"tested_on": "barnyardgrass (Echinochloa crus-galli)", "test": "Test A preemergence, barnyardgrass", "conditions": "0 to 100 scale, 0 is no effect, 100 is complete control", "procedure,_shortened": "as §2"}, "[6]": {"tested_on": "pigweed (Amaranthus retroflexus)", "test": "Test A postemergence, pigweed", "conditions": "Amaranthus retroflexus, post-emergence, 240 h, 0 to 100 scale, 0 no effect, 100 complete control, read-out: Plant response rating, Pigweed", "procedure,_shortened": "as §2"}, "kochia (Kochia scoparia)": {"tested_on": "kochia (Kochia scoparia)", "test": "Test A postemergence, kochia", "conditions": "Bassia scoparia, post-emergence, 240 h, 0 to 100 scale, 0 no effect, 100 complete control, read-out: Plant response rating, Kochia", "procedure,_shortened": "as §2"}, "[7]": {"tested_on": "galium (catchweed bedstraw, Galium aparine)", "test": "Test A postemergence, galium", "conditions": "Galium, post-emergence, 240 h, 0 to 100 scale, 0 no effect, 100 complete control, read-out: Plant response rating, Galium", "procedure,_shortened": "as §2"}, "[8]": {"tested_on": "ryegrass, Italian (Lolium multiflorum)", "test": "Test A preemergence, Italian ryegrass", "conditions": "0 to 100 scale, 0 is no effect, 100 is complete control", "procedure,_shortened": "as §2"}, "[9]": {"tested_on": "sedge, umbrella (small-flower umbrella sedge, Cyperus difformis)", "test": "Test B flooded paddy test, umbrella sedge", "conditions": "Cyperus difformis, 360 h; Flood, 250 g ai/ha, applied to paddy water, 2-leaf stage, visual evaluation after 13 to 15 d; read-out: Plant response rating, Sedge, Umbrella (0 to 100 scale, 0 is no effect, 100 is complete control)", "procedure,_shortened": "as §1"}, "[10]": {"tested_on": "ragweed (common ragweed, Ambrosia elatior)", "test": "Test A postemergence, ragweed", "conditions": "Ambrosia artemisiifolia, post-emergence, 240 h, 0 to 100 scale, 0 no effect, 100 complete control, read-out: Plant response rating, Ragweed", "procedure,_shortened": "as §2"}, "[11]": {"tested_on": "barnyardgrass (Echinochloa crus-galli)", "test": "Test B flooded paddy test, barnyardgrass", "conditions": "Echinochloa crus-galli, 360 h; Flood, 250 g ai/ha, applied to paddy water, 2-leaf stage, visual evaluation after 13 to 15 d; read-out: Plant response rating, Barnyardgrass (0 to 100 scale, 0 is no effect, 100 is complete control)", "procedure,_shortened": "as §1"}, "[12]": {"tested_on": "pigweed (Amaranthus retroflexus)", "test": "Test A preemergence, pigweed", "conditions": "0 to 100 scale, 0 is no effect, 100 is complete control", "procedure,_shortened": "as §2"}, "[13]": {"tested_on": "ryegrass, Italian (Lolium multiflorum)", "test": "Test A postemergence, Italian ryegrass", "conditions": "Lolium multiflorum, post-emergence, 240 h, 0 to 100 scale, 0 no effect, 100 complete control, read-out: Plant response rating, Ryegrass, Italian", "procedure,_shortened": "as §2"}, "[14]": {"tested_on": "blackgrass (Alopecurus myosuroides)", "test": "Test A postemergence, blackgrass", "conditions": "Alopecurus myosuroides, post-emergence, 240 h, 0 to 100 scale, 0 no effect, 100 complete control, read-out: Plant response rating, Blackgrass", "procedure,_shortened": "as §2"}, "[15]": {"tested_on": "barnyardgrass (Echinochloa crus-galli)", "test": "Test A postemergence, barnyardgrass", "conditions": "Echinochloa crus-galli, post-emergence, 240 h, 0 to 100 scale, 0 no effect, 100 complete control, read-out: Plant response rating, Barnyardgrass", "procedure,_shortened": "as §2"}}, "data": [{"smiles": "C[C@@H](Nc1ncc(C(F)(F)F)c(N)n1)c1cc2c(F)cccc2o1", "note": "[Compound 73, N2-[(1R)-1-(4-fluoro-2-benzofuranyl)ethyl]-5-(trifluoromethyl)-2,4-pyrimidinediamine]", "values": [{"measurement": "plant injury at 250 g/ha", "setting": "rice (Oryza sativa)", "value": 10, "unit": "%"}, {"measurement": "Ragweed plant response rating", "setting": "[1]; 125 g ai/ha", "value": 100}, {"measurement": "Ragweed plant response rating", "setting": "[1]; 500 g ai/ha", "value": 100}, {"measurement": "Foxtail, Giant plant response rating", "setting": "[2]; 125 g ai/ha", "value": 100}, {"measurement": "Foxtail, Giant plant response rating", "setting": "[2]; 500 g ai/ha", "value": 100}, {"measurement": "pest or weed control at 125 g/ha", "setting": "[3]; 125 g ai/ha", "value": 70, "unit": "%"}, {"measurement": "pest or weed control at 500 g/ha", "setting": "[3]; 500 g ai/ha", "value": 100, "unit": "%"}, {"measurement": "plant injury at 125 g/ha", "setting": "[4]; 125 g ai/ha", "value": 0, "unit": "%"}, {"measurement": "plant injury at 500 g/ha", "setting": "[4]; 500 g ai/ha", "value": 0, "unit": "%"}, {"measurement": "Barnyardgrass plant response rating", "setting": "[5]; 125 g ai/ha", "value": 90}, {"measurement": "Barnyardgrass plant response rating", "setting": "[5]; 500 g ai/ha", "value": 100}, {"measurement": "pest or weed control at 125 g/ha", "setting": "[6]; 125 g ai/ha", "value": 100, "unit": "%"}, {"measurement": "pest or weed control at 500 g/ha", "setting": "[6]; 500 g ai/ha", "value": 100, "unit": "%"}, {"measurement": "pest or weed control at 125 g/ha", "setting": "kochia (Kochia scoparia); 125 g ai/ha", "value": 90, "unit": "%"}, {"measurement": "pest or weed control at 500 g/ha", "setting": "kochia (Kochia scoparia); 500 g ai/ha", "value": 100, "unit": "%"}, {"measurement": "pest or weed control at 125 g/ha", "setting": "[7]; 125 g ai/ha", "value": 90, "unit": "%"}, {"measurement": "pest or weed control at 500 g/ha", "setting": "[7]; 500 g ai/ha", "value": 90, "unit": "%"}, {"measurement": "Ryegrass, Italian plant response rating", "setting": "[8]; 125 g ai/ha", "value": 100}, {"measurement": "Ryegrass, Italian plant response rating", "setting": "[8]; 500 g ai/ha", "value": 100}, {"measurement": "pest or weed control at 250 g/ha", "setting": "[9]", "value": 90, "unit": "%"}, {"measurement": "pest or weed control at 125 g/ha", "setting": "[10]; 125 g ai/ha", "value": 90, "unit": "%"}, {"measurement": "pest or weed control at 500 g/ha", "setting": "[10]; 500 g ai/ha", "value": 100, "unit": "%"}, {"measurement": "pest or weed control at 250 g/ha", "setting": "[11]", "value": 65, "unit": "%"}, {"measurement": "Pigweed plant response rating", "setting": "[12]; 125 g ai/ha", "value": 100}, {"measurement": "Pigweed plant response rating", "setting": "[12]; 500 g ai/ha", "value": 100}, {"measurement": "pest or weed control at 125 g/ha", "setting": "[13]; 125 g ai/ha", "value": 90, "unit": "%"}, {"measurement": "pest or weed control at 500 g/ha", "setting": "[13]; 500 g ai/ha", "value": 100, "unit": "%"}, {"measurement": "pest or weed control at 125 g/ha", "setting": "[14]; 125 g ai/ha", "value": 50, "unit": "%"}, {"measurement": "pest or weed control at 500 g/ha", "setting": "[14]; 500 g ai/ha", "value": 80, "unit": "%"}, {"measurement": "pest or weed control at 125 g/ha", "setting": "[15]; 125 g ai/ha", "value": 60, "unit": "%"}, {"measurement": "pest or weed control at 500 g/ha", "setting": "[15]; 500 g ai/ha", "value": 100, "unit": "%"}]}]}
